Common to all, as to assay: growth of human tumour cells (NCI), 48 h
Experiment [1] concerns DU-145 prostate.
Experiment [2] relates to SF-295 CNS.
In experiment [3] the test system is HOP-62 NSCLC.
The subject of experiment [4] is NCI-H522 lung.
Experiment [5] relates to BT-549 breast.
For experiment [6], the system named is OVCAR-8 ovarian.
Experiment [7] has as its system UACC-62 melanoma.
The test system of experiment [8] is SK-MEL-2 melanoma.
Experiment [9] relates to 786-0 renal.
Experiment [10] concerns SK-MEL-5 melanoma.

The text below walks through data of PubChem BioAssay (NCI).

Where “and” joins values, the source holds several entries; their conditions need not be identical. Equal entries are not always repeated.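 Following 48 hours of exposure in 96-well plates, responses at five concentrations were used to interpolate endpoints linearly. GI50 is the concentration that inhibits growth by half. TGI: concentration producing complete growth inhibition.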

As to `O=[N+]([O-])c1ccc(N2CCN(Cc3ccccc3)CC2)c2c1no[n+]2[O-]`, the GI50 is 1.57 µM in [1]; 1.38 µM in experiment [2]; 1.22 µM in experiment [3]; 0.682 µM in experiment [4]; 1.93 µM in experiment [5]; 1.59 µM in experiment [6]. Moreover, the GI50 in experiment [7] is 1.48 µM; in experiment [8] it was 2.22 µM; in experiment [9], 1.72 µM; in experiment [10], 1.73 µM. Also, the TGI in experiment [1] turned out to be 2.98 µM; in experiment [2], 2.84 µM; in [3], 2.77 µM; in [4] it was 2.16 µM; in [5], 3.78 µM; in [6], 5.25 µM. The TGI in experiment [7] was determined as 3.4 µM; in [8] it was 4.76 µM; in experiment [9], 3.18 µM; in experiment [10] it was 3.73 µM.

Regarding `Cn1c(C(N)=O)cc2c1-c1nc(Nc3ccccc3)ncc1CCC2`, the GI50 is 6.18 µM in experiment [1]; 4.65 µM in [2]; 2.96 µM in experiment [3]; 4.13 µM in experiment [4]; 3.29 µM in experiment [5]; 7.06 µM in [6]. The GI50 in experiment [7] is 3.92 µM; in experiment [8], 5.42 µM; in [9], 4.55 µM; in [10], 11.4 µM. Besides, the TGI in experiment [1] is 62.7 µM; in [2], over 100 µM; in experiment [3], 52.6 µM; in [4] it was 22.7 µM; in experiment [5], 27.8 µM; in [6] it was 69.3 µM. The TGI is 17.7 µM in [7], 23.1 µM in experiment [8], 34.5 µM in [9] and 25.8 µM in experiment [10].

As for `OCCN(CCO)N=Nc1ccc(-c2nc3ccccc3[nH]2)cc1`, the GI50 in experiment [1] was 20.9 µM; in experiment [2], 17.4 µM; in [3], over 100 µM; in experiment [4], 50.2 µM; in experiment [5] it was 42.7 µM; in [6], 24.7 µM. Also, the GI50 in experiment [7] was 35.2 µM; in experiment [8], 41.2 µM; in experiment [9], 25.2 µM; in experiment [10] it was 20.2 µM. Besides, the TGI is 46.6 µM in experiment [1]; 36 µM in [2]; over 100 µM in experiment [3]; over 100 µM in experiment [4]; 97.8 µM in experiment [5]; 53.9 µM in experiment [6]. Besides, the TGI in [7] was over 100 µM; in experiment [8] it was over 100 µM; in experiment [9], 56.2 µM; in experiment [10] it was 53.4 µM.

Regarding `Cc1[nH]c(=O)[nH]c(=O)c1N(CCF)CCCl`, the TGI was 1410 µM in [1]; 600 µM and > 25 µM and 1140 µM in experiment [2]; 872 µM and 1100 µM and 1150 µM in [3]; 375 µM and 416 µM and 519 µM in experiment [4]; 769 µM in experiment [5]; 632 µM and 1020 µM and 1140 µM in experiment [6]. The TGI in experiment [7] was 419 µM and 1040 µM and 673 µM; in experiment [8], 447 µM and 832 µM and 808 µM; in experiment [9], 1470 µM; in [10] it was 394 µM and 788 µM and 699 µM. For the same compound, the GI50 in experiment [2] was > 25 µM and 402 µM; in [3] it was 439 µM; in experiment [6], 210 µM and 388 µM and 217 µM; in experiment [7] it was 173 µM and 360 µM; in experiment [8], 239 µM; in [10], 388 µM.

Turning to `Cc1ccc(C)c(NC(=O)C(=O)C(c2cnc3ccc([N+](=O)[O-])cc3n2)[N+](=O)[O-])c1` (stereo not drawn), the TGI was over 100 µM in experiment [1]; over 100 µM in experiment [2]; over 100 µM in experiment [3]; over 100 µM in experiment [4]; over 100 µM in experiment [5]; 48.2 µM in experiment [6]. For the same compound, the TGI in experiment [7], in experiment [8], in experiment [9] and in [10] was over 100 µM in each case.

Regarding `COc1ccc(CN2C(=O)/C(=C\c3cc(OC)c(OC)c(OC)c3)c3cc(OC)ccc32)cc1`, the GI50 is 2.96 µM in [1]; 3.26 µM in experiment [2]; 2.37 µM in [3]; 1.32 µM in [4]; 3.34 µM in experiment [5]; 2.32 µM in experiment [6]. The GI50 in [7] is 1.71 µM; in experiment [8], 1.92 µM; in experiment [9], 2.29 µM; in experiment [10], 3.09 µM. Also, the TGI in [1] was 7.64 µM; in experiment [2], over 31.4 µM; in experiment [3], 4.89 µM; in experiment [4] it was 2.8 µM; in [5], 20.4 µM; in experiment [6], over 23.9 µM. Further, the TGI in experiment [7] worked out at 4.19 µM; in experiment [8], 4.01 µM; in [9], 5.07 µM; in experiment [10], 9.41 µM.

For the compound `CCN1C(=O)C/C(=C\C(C)=O)Nc2ccccc21`, the GI50 in experiment [1] and in [5] was over 100 µM each time. The TGI in experiment [1], in experiment [2], in experiment [3], in experiment [4], in experiment [5] and in experiment [6] was over 100 µM throughout. Besides, the TGI in [7] is over 100 µM; in [8], over 100 µM; in experiment [9], over 100 µM; in experiment [10], over 31.6 µM.

In the case of `CNc1ccccc1C(=O)N/N=C/C=C/c1ccccc1`, the GI50 is 3.47 µM in experiment [1]; 1.57 µM in [2]; 6.9 µM in experiment [3]; 0.565 µM in experiment [4]; 53.2 µM in experiment [5]; 3.41 µM in experiment [6]. Moreover, the GI50 in [7] was 0.816 µM; in experiment [8] it was 0.733 µM; in [9], 15.6 µM; in experiment [10], 0.849 µM. In addition, the TGI in [1] is over 57.6 µM; in experiment [2], over 54.3 µM; in experiment [3] it was over 61.6 µM; in [4] it was 11.3 µM; in experiment [5], over 100 µM; in experiment [6], over 100 µM. The TGI in experiment [7] is 32.7 µM; in experiment [8], 78.2 µM; in experiment [9], over 100 µM; in experiment [10], 31.3 µM.
